Assay results from patent publication US20120178180A1, “METHODS FOR THE IDENTIFICATION OF ZAP-70 INTERACTING MOLECULES AND FOR THE PURIFICATION OF ZAP-70” (priority 2006, published 2012).

Target: T1, phosphorylated ZAP-70 (Homo sapiens, UniProt P43403)
T1 construct: endogenous in cells; host or cells: Jurkat cells (clone E6-1, ATCC TIB-152), pervanadate treated
T1 sequence (P43403 1-619): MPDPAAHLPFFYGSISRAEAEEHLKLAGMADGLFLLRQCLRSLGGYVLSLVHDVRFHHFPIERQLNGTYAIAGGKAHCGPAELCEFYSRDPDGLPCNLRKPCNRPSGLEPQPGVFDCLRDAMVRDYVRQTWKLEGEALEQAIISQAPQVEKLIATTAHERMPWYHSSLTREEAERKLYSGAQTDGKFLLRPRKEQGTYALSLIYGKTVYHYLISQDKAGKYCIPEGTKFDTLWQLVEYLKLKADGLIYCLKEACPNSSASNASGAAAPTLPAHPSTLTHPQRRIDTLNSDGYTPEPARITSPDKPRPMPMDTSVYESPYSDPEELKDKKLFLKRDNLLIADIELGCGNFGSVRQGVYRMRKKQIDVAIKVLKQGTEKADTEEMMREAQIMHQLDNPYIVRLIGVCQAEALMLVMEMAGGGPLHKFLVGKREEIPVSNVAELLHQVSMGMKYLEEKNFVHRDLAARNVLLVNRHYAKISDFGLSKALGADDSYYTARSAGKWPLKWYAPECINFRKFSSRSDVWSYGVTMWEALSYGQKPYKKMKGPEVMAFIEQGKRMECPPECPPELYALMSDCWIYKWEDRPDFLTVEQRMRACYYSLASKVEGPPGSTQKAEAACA
Assay: Drug pulldown with immobilized aminopyrido-pyrimidin ligand 24 and Western blot analysis
Format: binding
Conditions: lysates of non-treated versus pervanadate treated Jurkat cells; Western blot, FIG. 2
Description: As biological material cell lysates prepared from non-treated or pervanadate treated Jurkat cells were used. The drug pulldown experiment was performed as described in Example 2 with lysate samples containing 50 mg of protein. Input lysate, flowthrough (non-bound fraction) and SDS-eluates (bound fraction) were separated on a SDS-polyacrylamide gel and transferred to a membrane. The blot was probed first with a general anti-ZAP-70 antibody (2A) and then with an antiphospho-ZAP-70 antibody (2B). Secondary detection antibodies were labeled with fluorescent dyes for detection with the Odyssey infrared imaging system. […]
For Western blot analysis bound proteins were eluted from the affinity matrix and subsequently separated by SDS-Polyacrylamide gel electrophoresis. ZAP-70 was detected with a general monoclonal antibody binding to the non-phosphorylated aminoterminal part of the protein and in addition with a phospho-specific antibody (FIG. 2). […]
Jurkat cells were homogenized in a Potter S homogenizer in lysis buffer: 50 mM Tris-HCl, 0.8% NP40, 5% glycerol, 150 mM NaCl, 1.5 mM MgCl2, 25 mM NaF, 1 mM sodium vanadate, 1 mM DTT, pH 7.5. […] The supernatant was transferred again to a fresh 50 ml falcon tube, the protein concentration was determined by a Bradford assay (BioRad) and samples containing 50 mg of protein per aliquot were prepared. […]

Cn1c(=O)c(-c2c(Cl)cccc2Cl)cc2cnc(Nc3ccc(CN)cc3)cc21 [aminopyrido-pyrimidin ligand 24, 7-(4-Aminomethyl-phenylamino)-3-(2,6-dichloro-phenyl)-1-methyl-1H-[1,6]naphthyridin-2-one]
pulldown of ZAP-70 by the immobilized ligand: preferentially pulls down a phosphorylated form of ZAP-70
